Laboratory results from publication PMC11219860, “A chemogenetic approach for dopamine imaging with tunable sensitivity” (Nature Communications, 2024).

Tests used:
[1] = ref Svensson et al 2019; Meltzer et al., 2019; Rajagopal et al., 2024; cited from earlier work
NAc DRD1-MSNs = test: Footshock-induced NAc DRD1-MSN activity (jGCaMP8m photometry); conditions: DETQ 10 mg/kg; SCH-23390 0.1 mg/kg i.p.
Experimental: Cue-reward paradigm (NAc recordings) was carried out in an operant chamber within a sound-attenuating box with low red light illumination (30 Lux). […] During the next session mice were trained to initiate reward delivery via licking. […] During expert sessions CS-US pairings were repeated 20 times per session ( ~ 30 min for each session). Mice underwent a total of 12 sessions for cue-reward learning. 10 minutes before each session drugs were injected i.p. […] The rewards were delivered from 10 to 40 min post vehicle or DETQ injection. Chambers and lick ports were sanitized with ethanol between mice. For all sessions, lick data and photometry recordings were simultaneously obtained; licking behaviour was detected by a capacity-based sensor. Latency to reward-anticipatory licking was calculated as the time between the CS and lick onset. The lick proportion was calculated as the percent time mice spent licking during CS presentation divided by the percent time mice spent licking during the rest of the session (without CS). […] Fiber photometry recordings were analyzed using custom-written Matlab scripts. […] Change in fluorescence, ΔF/F0 (%), was defined as (F-F0)/F0 x 100, where F represents the fluorescent signal (465-nm) at each time point. F0 was calculated by applying a least-squares linear fit (polyfit) to the 405-nm signal to align with the 465-nm signal. […]

hM4Di in VTA DA neurons = molecular target: T1, hM4Di in VTA DA neurons (Homo sapiens, UniProt P08173, A203G/Y113C); test: Chemogenetic inhibition of VTA DA neurons with NAc dLight1.3b photometry; type: in vivo, mouse; conditions: J60 0.2 or 1 mg/kg, 10 minutes after DETQ
T1 construct: mCherry; expressed in transfected cells; host or cells: VTA dopamine neurons of DAT-IRES-cre mice, Cre-dependent AAV5
Experimental: Fiber photometry combined with optogenetics was conducted using a RZ10X LUX-I/O Processor with integrated LEDs (Tucker-Davis Technologies) combined with a filter/mirror minicube set (FMC6_IE(400-410)_E1(467-497)_F1(507-554)_E2(566-586)_F2(600-680)_S) (Doric Lenses). […] Low-autofluorescence patch cords (400 µm/0.57 NA, Doric) were attached to the optic fibers (400 µm/0.66 NA, Doric) on the mouse’s head to collect fluorescence emissions. Signals were filtered through 500–540 nm GFP emission filters coupled to a photodetector on the RZ10X. […] Data were sampled at 1017.3 Hz. […] DA release was measured with fiber photometry. […] After each injection, NAc DA axons were optically (opto) activated across 3 trials (2 s, 20 Hz, 20-ms pulses) every 5 min and DA released measured with fiber photometry. […] After each injection, NAc DA axons were optically (opto) inhibited (10 s, continuous trials) every 3 min (8 trials/condition) and DA released measured with fiber photometry. […] DA release was measured with fiber photometry.
For long-term recordings during optogenetic stimulation or chemogenetic inhibition linear fit was calculated across the entire recording or across the vehicle epoch; for event-related experiments fit was performed on fluorescent data obtained in the −60 to +60 s around opto events or −5 to −1 s around behavioral events. […]

[2] = molecular target: T2, mouse DA transporter (DAT) (Mus musculus, UniProt Q61327); test: Fast-scan cyclic voltammetry of DA release in striatal slices; conditions: bath application: DETQ 200 nM; cocaine 5 µM
T2 construct: Lack of DETQ effect on the endogenous DA transporter; from tissue; host or cells: mouse striatal brain slices
Experimental: Striatal DA release was measured using fast-scan cyclic voltammetry (FSCV) with a carbon fiber electrode (CFE; diameter 7 µm, length 50–100 µm) positioned approximately 100 µm below the surface of the slice. The CFE was scanned across a triangular waveform (−0.4 to +1.3 V, 400 V/s) at 10 Hz, and DA release was evoked by single-pulse electrical stimulation (30 µA, 0.5 ms) with an inter-stimulus interval of 180 s. DA release was evoked in the presence of DHBE (1 µM) to block nicotinic acetylcholine receptors. Peak background-subtracted DA oxidation current was measured at +0.6 V, and drugs were washed on after establishing a stable baseline.

dLight1.3b = test: In vivo photometry of optogenetically-evoked DA release in PFC; design: species or system mouse; conditions: cocaine 20 mg/kg after DETQ 10 mg/kg
Experimental: (§1) Fiber photometry combined with optogenetics was conducted using a RZ10X LUX-I/O Processor with integrated LEDs (Tucker-Davis Technologies) combined with a filter/mirror minicube set (FMC6_IE(400-410)_E1(467-497)_F1(507-554)_E2(566-586)_F2(600-680)_S) (Doric Lenses). […] Low-autofluorescence patch cords (400 µm/0.57 NA, Doric) were attached to the optic fibers (400 µm/0.66 NA, Doric) on the mouse’s head to collect fluorescence emissions. Signals were filtered through 500–540 nm GFP emission filters coupled to a photodetector on the RZ10X. […] Data were sampled at 1017.3 Hz. […] For optogenetic stimulation, a 635 nm LED was passed through the 580–680 nm minicube F2 port and reached the mouse through the same unique optic fiber; the LED was driven at 1 to 3 mW. To determine the ‘temporal window for stable imaging’ in the PFC using dLight1.3b recordings, DAT^IREScre mice expressing ChrimsonR in VTA DA axons and dLight1.3b in the PFC were injected i.p. with vehicle at 0 min, followed by DETQ (10 mg/kg) 25 min later. After each injection, PFC DA axons were optically (opto) activated across 5 trials (2 s, 20 Hz, 20-ms pulses) for the vehicle (20 min) and 19 trials for DETQ (1h05 min) every 5 min. DA release was measured with fiber photometry. In another session, the same mice were injected with Veh, then DETQ (10 mg/kg) 20 min later, then cocaine (20 mg/kg) 25 min later, and the same optogenetic protocol was applied (2 s, 20 Hz, 20-ms pulses every 5 min). For optogenetic validation of AlloLite-ctr in the NAc, DAT^IREScre mice expressing ChrimsonR in VTA DA axons were injected i.p. with vehicle (Day 1) or DETQ (10 mg/kg) (Day 8) at 0 min, followed by cocaine (20 mg/kg) 20 min later. After each injection, NAc DA axons were optically (opto) activated across 3 trials (2 s, 20 Hz, 20-ms pulses) every 5 min and DA released measured with fiber photometry. […] After each injection, NAc DA axons were optically (opto) inhibited (10 s, continuous trials) every 3 min (8 trials/condition) and DA released measured with fiber photometry. […] DA release was measured with fiber photometry.
For long-term recordings during optogenetic stimulation or chemogenetic inhibition linear fit was calculated across the entire recording or across the vehicle epoch; for event-related experiments fit was performed on fluorescent data obtained in the −60 to +60 s around opto events or −5 to −1 s around behavioral events. […] DA event-related responses were quantified by computing the value at the transient’s peak value and the AUC in the 0 to 10 s or 0 to 60 s period post-event onset. […] The maximal peak value of Veh-normalized ΔF/F0 after opto-onset was plotted over time and the plateau of maximal response was determined by averaging peak opto responses 5, 10, 15 and 20 min post-DETQ. […]

Open field behavior = type: in vivo, mouse; conditions: untethered mice, 45 min; DETQ 3, 10, 30 mg/kg i.p.; cocaine 20 mg/kg
Experimental: For combined locomotion/photometry experiments in the open field (OF) in tethered mice, a 50 × 50 cm arena was used. Fiber photometry was conducted using a Doric photometry rig combined with a filter/mirror minicube set (Doric Lenses), as above. […] Data were sampled at 122 Hz. […] Mice were habituated to the chamber for 3 consecutive days (30 minutes per day). On experimental days, locomotor activity was video recorded and synchronized with fiber photometry signal recording. The baseline DA signal was recorded for 20 minutes, then the mouse received i.p. injection of vehicle or DETQ (10 mg/kg) in interleaved sessions. Following injection, the DA signal was recorded for an additional 90 minutes. The OF chamber was cleaned with ethanol and water between mice. Recording sessions were repeated at 48 hours intervals. Mouse behavior as well as photometry signals were analyzed with a custom-written MATLAB script. Mouse locomotion was computed using the body center point of the animal. The center zone of the arena was defined automatically during behavior data analysis as the 25 × 25 cm square with the central point aligned to the center of the open field. The distance moved and time spent in the center zone were quantified in 10 minutes time bins and as the total during the 90 minutes after ip injections. To test the dose-dependent effects of DETQ on locomotion in untethered mice, mice were injected i.p. with vehicle, DETQ (3, 10 or 30 mg/kg) or cocaine (20 mg/kg) while their locomotor activity was recorded in an OF arena (60 x 60 cm) for 45 min. Videos were recorded with a Logitech C270 camera and analyzed with DeepLabCut (version 2.1.8.2)[84] on an existing open field network. Representative traces were generated with the Anymaze (v7.2) software (Stoelting Co.).

AlloLite-ctr = test: In vivo photometry of AlloLite-ctr in NAc; design: species or system mouse; conditions: cocaine 20 mg/kg
Experimental: as §1, with “After each injection, PFC DA axons were optically (opto) activated across 5 trials (2 s, 20 Hz, 20-ms pulses) for the vehicle (20 min) and 19 trials for DETQ (1h05 min) every 5 min.” left out, “In another session, the same mice were injected with Veh, then DETQ (10 mg/kg) 20 min later, then cocaine (20 mg/kg) 25 min later, and the same optogenetic protocol was applied (2 s, 20 Hz, 20-ms pulses every 5 min). For optogenetic validation of AlloLite-ctr in the NAc, DAT^IREScre mice expressing ChrimsonR in VTA DA axons were injected i.p. with vehicle (Day 1) or DETQ (10 mg/kg) (Day 8) at 0 min, followed by cocaine (20 mg/kg) 20 min later.” left out
For long-term recordings during optogenetic stimulation or chemogenetic inhibition linear fit was calculated across the entire recording or across the vehicle epoch; for event-related experiments fit was performed on fluorescent data obtained in the −60 to +60 s around opto events or −5 to −1 s around behavioral events. […] DA event-related responses were quantified by computing the value at the transient’s peak value and the AUC in the 0 to 10 s or 0 to 60 s period post-event onset. […]

T2 sequence (Q61327 whole entry): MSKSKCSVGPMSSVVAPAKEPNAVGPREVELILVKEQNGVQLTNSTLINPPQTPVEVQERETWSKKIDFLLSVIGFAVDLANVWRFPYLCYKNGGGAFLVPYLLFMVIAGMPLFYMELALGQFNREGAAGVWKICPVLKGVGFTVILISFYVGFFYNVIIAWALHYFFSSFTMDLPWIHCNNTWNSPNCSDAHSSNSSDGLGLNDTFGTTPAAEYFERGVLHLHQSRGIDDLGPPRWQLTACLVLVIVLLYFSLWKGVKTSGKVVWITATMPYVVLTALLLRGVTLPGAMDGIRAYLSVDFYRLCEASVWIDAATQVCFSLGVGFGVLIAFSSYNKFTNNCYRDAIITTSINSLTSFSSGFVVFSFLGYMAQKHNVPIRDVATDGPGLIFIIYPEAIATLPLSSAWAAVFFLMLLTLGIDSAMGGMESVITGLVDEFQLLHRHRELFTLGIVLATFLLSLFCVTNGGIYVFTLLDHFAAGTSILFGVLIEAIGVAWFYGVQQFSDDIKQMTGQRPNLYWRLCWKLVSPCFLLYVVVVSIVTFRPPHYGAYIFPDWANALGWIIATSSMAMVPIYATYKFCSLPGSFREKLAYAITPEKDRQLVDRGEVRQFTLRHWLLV
T1 sequence (P08173 whole entry Y113C/A203G): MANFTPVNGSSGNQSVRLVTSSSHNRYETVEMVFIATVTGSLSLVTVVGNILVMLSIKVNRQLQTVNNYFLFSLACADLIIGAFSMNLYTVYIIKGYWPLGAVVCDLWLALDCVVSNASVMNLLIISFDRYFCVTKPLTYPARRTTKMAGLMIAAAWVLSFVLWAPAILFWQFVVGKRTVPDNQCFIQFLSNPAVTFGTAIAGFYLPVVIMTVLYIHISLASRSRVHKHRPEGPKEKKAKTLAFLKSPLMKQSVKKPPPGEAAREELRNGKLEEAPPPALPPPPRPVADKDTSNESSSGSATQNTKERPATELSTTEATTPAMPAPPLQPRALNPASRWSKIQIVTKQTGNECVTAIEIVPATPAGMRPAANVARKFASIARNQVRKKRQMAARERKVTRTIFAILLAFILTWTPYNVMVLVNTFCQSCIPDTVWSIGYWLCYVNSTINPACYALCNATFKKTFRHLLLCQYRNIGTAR

CN1CCc2cc(Cl)c(O)cc2[C@@H](c2ccccc2)C1 [SCH-23390]
behavioral effect of DETQ in hD1 mice [1]: blocked
footshock-induced activity in NAc DRD1-MSNs (NAc DRD1-MSNs): reduces

CCN1CCN(C2=Nc3cc(Cl)ccc3Nc3c(F)cccc32)CC1 [J60]
step-like increase in dLight1.3b baseline signal observed with DETQ (hM4Di in VTA DA neurons): dose-dependently decreased

COC(=O)[C@H]1[C@@H](OC(=O)c2ccccc2)C[C@@H]2CC[C@H]1N2C [cocaine]
decay constant (tau) of DA signals [2]: slowed the decay
peak DA release [2]: significantly increased
baseline fluorescence of the sensor after DETQ (dLight1.3b): further boosted
locomotion in open field (Open field behavior): increase
decay time of opto-evoked DA peaks (AlloLite-ctr): increased decay time
